Experimental data published in patent publication US20220153751A1, “BIFUNCTIONAL COMPOUNDS” (BioTheryX, Inc., priority 2018, published 2022).

Columns and labels:
Type in all cases: cell-based
IL-2 = IL-2 fold-change assay, anti-CD3 stimulated PBMCs (Mesoscale); conditions: PBMC, PBMCs on anti-human CD3, 24 h, fold difference from the DMSO control
Description: For the IL-2 analysis, 96 well plates were precoated with 1 μg/mL anti-human CD3 antibody (OK3, eBioscience Inc., San Diego, Calif.). After washing with PBS, the indicated compound was added (50 μL/well) followed by PBMCs diluted at 3-4 million cells/mL (150 μL/well). Plates were incubated for 24 h and the supernatants collected for Mesoscale IL-2 analysis. IL-2 activity is measured as fold difference from the DMSO control.
In Table 6, the % inhibition values are reported as “A”, “B”, “C”, or “D”. “A” represents a % inhibition value of less than 50% (value <50%). “B” represents a % inhibition value of equal to or more than 50% and less than 70% (50%≤value<70%). “C” represents a % inhibition value of equal to or more than 70% and less than 90% (70%≤value<90%). “D” represents a % inhibition value of equal or more than 90% (value ≥90%). In Table 7, the fold-change values are reported as “A”, “B”, “C”, or “D”. “A” represents a fold-change value of equal to or less than 0.1 (value ≤0.1). “B” represents a fold-change value of more than 0.1 and equal to or less than 0.5 (0.1<value≤0.5). “C” represents a fold-change value of more than 0.5 and equal to or less than 1 (0.5<value≤1). “D” represents a fold-change value of more than 1 (value >1).

TNF-α = TNF-α inhibition assay, LPS-induced PBMCs / CD14+ monocytes (Meso Scale); conditions: 1 h pretreatment, 100 ng/mL LPS 18-24 h
In short: (§1)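 Thawed human PBMCs or CD14+ mobilized peripheral blood monocytes, 200,000 cells/well in RPMI-1640/10% FBS, pretreated with compound or DMSO 1 h, then stimulated with 100 ng/mL LPS for 18-24 h. Supernatant cytokine measured by Meso Scale; % inhibition binned A–D (<50%, 50–70%, 70–90%, ≥90%), fold-change binned A–D (≤0.1, ≤0.5, ≤1, >1).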

IL-6 = IL-6 inhibition assay, LPS-induced PBMCs / CD14+ monocytes (Meso Scale); conditions: 1 h pretreatment, 100 ng/mL LPS 18-24 h
In short: as §1

MOLM-13 cells = assay: MOLM-13 cell viability assay (CellTiter-Glo); conditions: Homo sapiens, MOLM-13, 72 h, 3 days, read-out: MOLM-13 Cell Viability % DMSO at 1 μM
In short: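 MOLM-13 cells at 2500 cells/well were exposed to compound for 3 days at 37 °C. Viability was read by CellTiter-Glo luminescence and expressed as % of DMSO control, binned A (<50%), B (50–<70%), C (70–<90%) or D (≥90%).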

IL-1β = IL-1β inhibition assay, LPS-induced PBMCs / CD14+ monocytes (Meso Scale); conditions: 1 h pretreatment, 100 ng/mL LPS 18-24 h
In short: as §1

CK1α = target: T1, CK1α (Homo sapiens, UniProt P48729+Q96SW2); assay: CK1α degradation assay (Western blot, MV-4-11 cells); conditions: MV4-11, 6-8 h
T1 construct: Whole cell extracts were prepared using RIPA buffer; endogenous in cells; host or cells: MV-4-11
Description: MV-4-11 cells were grown in RPMI 1640 media supplemented with 10% fetal bovine serum, streptomycin and penicillin.
Cells were cultured at approximately 10^6 cells per mL and incubated in DMSO or the indicated compound for 6-8 h. Whole cell extracts were prepared using RIPA buffer according to manufacturer's protocol (Pierce). Briefly, 3×10^6 cells were washed once in PBS, the cell pellets were resuspended in RIPA buffer and allowed to incubate for 15 minutes on ice. Cells debris was removed by centrifugation and the cleared whole cell lysates were transferred to new tubes for further analysis.
For Western blot analysis, whole cell protein extracts were separated on 4-12% SDS-polyacrylamide gels, transferred to nitrocellulose and probed with the indicated primary antibodies. Membranes were subsequently washed and probed with the appropriate IRDye secondary antibodies (LI-COR). The signal was detected using the Odyssey Imaging System (LI-COR).
The following antibodies were used in these studies: Anti-eRF3/GSPT1: Abcam, ab126090 (Cambridge, Mass.); Anti-Ikaros: Abcam, ab191394 (Cambridge, Mass.); Anti-CK1α: Abcam, ab108296 (Cambridge, Mass.); Anti-CDK9: Santa Cruz Biotechnology, sc13130 (Dallas, Tex.); Anti-CDK16: Millipore Sigma, HPA001366 (St. Louis, Mo.); 3-actin (8H10comD10) mouse monoclonal antibody: Cell Signaling Technology, #3700 (Danvers, Mass.); IRDye 680RD Goat anti-rabbit antibody: LI-COR, 926-68071 (Lincoln, Nebr.); IRDye 800CW Goat anti-mouse antibody: LI-COR, 926-32210 (Lincoln, Nebr.).
CDK9 activities are shown in Table 4 at two different concentrations. CDK16 activities are shown in Table 5 at two different concentrations. In each of Tables 1-5, the % degradation values are reported as “A”, “B”, “C”, or “D”. “A” represents a % degradation value of less than 25% (value <25%). “B” represents a % degradation value of equal to or more than 25% and less than 50% (25%≤value<50%). “C” represents a % degradation value of equal to or more than 50% and less than 75% (50%≤value<75%). “D” represents a % degradation value of equal to or more than 75% (value ≥75%).

GSPT1 = target: T2, GSPT1 (Homo sapiens, UniProt P15170+Q96SW2); assay: GSPT1 degradation assay (Western blot, MV-4-11 cells); conditions: MV4-11, 6-8 h
T2 construct: Whole cell extracts were prepared using RIPA buffer; endogenous in cells; host or cells: MV-4-11
In short: (§2)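 Western blot, infrared fluorescence read-out: % degradation versus DMSO after 6-8 h compound treatment of ~10^6 cells/mL. RIPA whole-cell lysates on 4-12% gels, nitrocellulose transfer. Binned A <25%, B 25–<50%, C 50–<75%, D ≥75%.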

IKAROS = target: T3, IKAROS (Homo sapiens, UniProt Q13422+Q96SW2); assay: IKAROS degradation assay (Western blot, MV-4-11 cells); conditions: MV4-11, 6-8 h
T3 construct: endogenous in cells; host or cells: MV-4-11
In short: as §2

T1 sequence (P48729 whole entry): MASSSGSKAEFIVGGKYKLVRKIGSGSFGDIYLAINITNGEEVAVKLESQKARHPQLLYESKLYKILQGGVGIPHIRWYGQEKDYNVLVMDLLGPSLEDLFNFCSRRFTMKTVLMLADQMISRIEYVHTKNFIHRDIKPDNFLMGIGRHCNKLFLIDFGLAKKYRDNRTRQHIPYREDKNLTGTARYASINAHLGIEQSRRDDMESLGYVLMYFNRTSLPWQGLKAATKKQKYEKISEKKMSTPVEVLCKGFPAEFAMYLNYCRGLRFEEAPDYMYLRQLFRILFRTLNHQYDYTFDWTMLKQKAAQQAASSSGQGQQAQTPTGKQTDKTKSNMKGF
T1 sequence (Q96SW2 whole entry): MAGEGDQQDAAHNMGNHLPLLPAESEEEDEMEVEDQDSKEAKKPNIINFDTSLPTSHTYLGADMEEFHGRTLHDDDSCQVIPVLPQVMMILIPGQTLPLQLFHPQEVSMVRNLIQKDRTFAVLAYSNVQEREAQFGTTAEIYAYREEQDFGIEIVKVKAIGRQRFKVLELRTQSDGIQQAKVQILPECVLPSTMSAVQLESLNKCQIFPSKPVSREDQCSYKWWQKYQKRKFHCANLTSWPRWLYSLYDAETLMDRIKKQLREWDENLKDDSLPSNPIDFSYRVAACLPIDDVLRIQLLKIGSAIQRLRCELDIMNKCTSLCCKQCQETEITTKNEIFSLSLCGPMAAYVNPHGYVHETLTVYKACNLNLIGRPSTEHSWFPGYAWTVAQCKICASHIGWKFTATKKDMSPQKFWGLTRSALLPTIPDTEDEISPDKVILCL
T1 sequence (Q16531 whole entry partner): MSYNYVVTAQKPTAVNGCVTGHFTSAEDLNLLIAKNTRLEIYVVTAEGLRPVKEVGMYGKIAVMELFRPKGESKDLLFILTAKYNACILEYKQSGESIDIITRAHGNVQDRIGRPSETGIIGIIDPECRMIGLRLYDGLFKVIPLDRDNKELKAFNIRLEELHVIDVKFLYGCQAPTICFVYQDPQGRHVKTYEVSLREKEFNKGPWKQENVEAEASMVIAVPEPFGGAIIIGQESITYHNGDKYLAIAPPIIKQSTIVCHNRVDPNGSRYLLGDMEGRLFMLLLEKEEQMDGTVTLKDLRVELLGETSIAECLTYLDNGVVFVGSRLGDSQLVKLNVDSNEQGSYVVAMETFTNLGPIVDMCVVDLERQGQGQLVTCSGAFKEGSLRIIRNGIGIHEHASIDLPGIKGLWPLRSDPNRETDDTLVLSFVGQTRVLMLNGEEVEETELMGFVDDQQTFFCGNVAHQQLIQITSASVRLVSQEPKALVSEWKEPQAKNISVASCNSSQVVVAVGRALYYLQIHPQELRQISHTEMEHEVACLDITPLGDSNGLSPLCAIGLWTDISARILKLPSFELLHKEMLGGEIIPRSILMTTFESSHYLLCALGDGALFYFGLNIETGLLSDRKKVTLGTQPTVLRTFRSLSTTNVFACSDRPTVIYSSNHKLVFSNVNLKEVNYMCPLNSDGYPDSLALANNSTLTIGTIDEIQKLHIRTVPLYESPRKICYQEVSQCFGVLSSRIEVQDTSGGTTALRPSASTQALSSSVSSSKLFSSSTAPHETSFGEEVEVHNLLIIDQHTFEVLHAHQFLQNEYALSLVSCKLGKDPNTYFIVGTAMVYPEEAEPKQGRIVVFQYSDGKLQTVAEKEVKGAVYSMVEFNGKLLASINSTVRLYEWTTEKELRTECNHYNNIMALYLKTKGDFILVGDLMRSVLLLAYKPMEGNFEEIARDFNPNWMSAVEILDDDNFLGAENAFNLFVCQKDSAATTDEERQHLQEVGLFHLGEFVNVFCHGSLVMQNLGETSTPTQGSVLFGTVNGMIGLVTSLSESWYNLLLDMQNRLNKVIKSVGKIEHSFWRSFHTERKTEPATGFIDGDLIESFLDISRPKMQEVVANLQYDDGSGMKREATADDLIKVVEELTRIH
T2 sequence (P15170 whole entry): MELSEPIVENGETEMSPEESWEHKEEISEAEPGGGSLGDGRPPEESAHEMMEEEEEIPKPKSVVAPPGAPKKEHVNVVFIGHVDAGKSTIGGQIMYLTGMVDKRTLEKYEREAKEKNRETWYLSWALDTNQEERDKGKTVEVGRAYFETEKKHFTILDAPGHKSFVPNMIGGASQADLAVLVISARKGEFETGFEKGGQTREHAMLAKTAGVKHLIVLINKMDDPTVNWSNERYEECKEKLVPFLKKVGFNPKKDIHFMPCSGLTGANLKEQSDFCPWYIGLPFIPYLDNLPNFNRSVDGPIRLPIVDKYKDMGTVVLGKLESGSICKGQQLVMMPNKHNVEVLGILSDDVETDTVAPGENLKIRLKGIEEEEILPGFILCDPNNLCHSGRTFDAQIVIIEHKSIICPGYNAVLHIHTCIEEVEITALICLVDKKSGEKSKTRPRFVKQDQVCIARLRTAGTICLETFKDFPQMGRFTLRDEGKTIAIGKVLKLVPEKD
T2 sequence (Q96SW2 whole entry): as the sequence (Q96SW2 whole entry) above
T2 sequence (Q16531 whole entry partner): as the sequence (Q16531 whole entry partner) above
T3 sequence (Q13422 whole entry): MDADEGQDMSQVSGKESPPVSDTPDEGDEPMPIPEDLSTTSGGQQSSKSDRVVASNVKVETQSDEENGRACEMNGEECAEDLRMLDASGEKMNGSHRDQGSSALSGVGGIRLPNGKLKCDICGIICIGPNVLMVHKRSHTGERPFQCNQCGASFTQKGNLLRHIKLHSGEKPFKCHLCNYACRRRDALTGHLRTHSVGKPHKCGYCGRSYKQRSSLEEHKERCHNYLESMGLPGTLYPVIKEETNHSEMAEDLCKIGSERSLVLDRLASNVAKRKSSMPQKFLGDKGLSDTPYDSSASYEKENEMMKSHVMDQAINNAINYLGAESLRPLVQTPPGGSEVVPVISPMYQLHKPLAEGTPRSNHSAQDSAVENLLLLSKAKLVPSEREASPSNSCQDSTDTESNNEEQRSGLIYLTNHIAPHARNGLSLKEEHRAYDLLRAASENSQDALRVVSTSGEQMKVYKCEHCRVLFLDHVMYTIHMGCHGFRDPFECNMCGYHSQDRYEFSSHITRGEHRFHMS
T3 sequence (Q96SW2 whole entry): as the sequence (Q96SW2 whole entry) above
T3 sequence (Q16531 whole entry partner): as the sequence (Q16531 whole entry partner) above

Row | SMILES | Dmax at 1 µM (CK1α) [%] | Dmax at 1 µM (GSPT1) [%] | Dmax at 1 µM (IKAROS) [%] | fold induction at 1 µM (IL-2) | inhibition at 1 µM (TNF-α) [%] | inhibition at 1 µM (IL-6) [%] | viability at 1 µM (MOLM-13 cells) [%] | inhibition at 1 µM (IL-1β) [%]
1 | Cn1ncc(-c2nc(N[C@H]3CC[C@H](NC(=O)CCCCCCNCC(=O)Nc4cccc5c4CN([C@H]4CCCC(=O)NC4=O)C5=O)CC3)ncc2Cl)c1CC1CC1 [Compound 9, N-((1r,4r)-4-((5-chloro-4-(5-(cyclopropylmethyl)-1-methyl-1H-pyrazol-4-yl)pyrimidin-2-yl)amino)cyclohexyl)-7-((2-((2-((S)-2,7-dioxoazepan-3-yl)-1-oxoisoindolin-4-yl)amino)-2-oxoethyl)amino)heptanamide] | < 25 | 50 to 75 | – | 0.5 to 1 | 50 to 70 | < 50 | < 50 | 50 to 70
2 | Cn1ncc(-c2nc(N[C@H]3CC[C@H](NCC(=O)NCCOCCOCC(=O)NCc4ccc(COc5cccc6c5CN(C5CCC(=O)NC5=O)C6=O)cc4)CC3)ncc2Cl)c1CC1CC1 (stereo partly drawn) [Compound 28, 2-(((1r,4r)-4-((5-chloro-4-(5-(cyclopropylmethyl)-1-methyl-1H-pyrazol-4-yl)pyrimidin-2-yl)amino)cyclohexyl)amino)-N-(2-(2-(2-((4-(((2-(2,6-dioxopiperidin-3-yl)-1-oxoisoindolin-4-yl)oxy)methyl)benzyl)amino)-2-oxoethoxy)ethoxy)ethyl)acetamide] | – | < 25 | 50 to 75 | ≤ 0.1 | > 90 | > 90 | > 90 | > 90
3 | Cn1ncc(-c2nc(N[C@H]3CC[C@H](NCC(=O)NCCCCNCC(=O)NCc4scc5c4C(=O)N(C4CCC(=O)NC4=O)C5=O)CC3)ncc2Cl)c1CC1CC1 (stereo partly drawn) [Compound 51, 2-(((1r,4r)-4-((5-chloro-4-(5-(cyclopropylmethyl)-1-methyl-1H-pyrazol-4-yl)pyrimidin-2-yl)amino)cyclohexyl)amino)-N-(4-((2-(((5-(2,6-dioxopiperidin-3-yl)-4,6-dioxo-5,6-dihydro-4H-thieno[3,4-c]pyrrol-1-yl)methyl)amino)-2-oxoethyl)amino)butyl)acetamide] | 25 to 50 | 25 to 50 | 50 to 75 | ≤ 0.1 | > 90 | > 90 | > 90 | > 90
4 | Cn1ncc(-c2nc(N[C@H]3CC[C@H](NCCOCCOCCNCc4ccc(OCc5scc6c5CN([C@H]5CCC(=O)NC5=O)C6=O)cc4)CC3)ncc2Cl)c1CC1CC1 [Compound 67, (S)-3-(1-((4-(((2-(2-(2-(((1r,4r)-4-((5-chloro-4-(5-(cyclopropylmethyl)-1-methyl-1H-pyrazol-4-yl)pyrimidin-2-yl)amino)cyclohexyl)amino)ethoxy)ethoxy)ethyl)amino)methyl)phenoxy)methyl)-4-oxo-4H-thieno[3,4-c]pyrrol-5(6H)-yl)piperidine-2,6-dione] | 25 to 50 | 50 to 75 | 25 to 50 | 0.5 to 1 | > 90 | > 90 | > 90 | > 90
5 | Cn1ncc(-c2ncnc(N[C@H]3CC[C@H](NCCCCCCCCNC(=O)NCc4cc5c(s4)C(=O)N(C4CCC(=O)NC4=O)C5)CC3)n2)c1CC1CC1 (stereo partly drawn) [Compound 65, 1-(8-(((1r,4r)-4-((4-(5-(cyclopropylmethyl)-1-methyl-1H-pyrazol-4-yl)-1,3,5-triazin-2-yl)amino)cyclohexyl)amino)octyl)-3-((5-(2,6-dioxopiperidin-3-yl)-6-oxo-5,6-dihydro-4H-thieno[2,3-c]pyrrol-2-yl)methyl)urea] | 50 to 75 | 25 to 50 | – | 0.5 to 1 | < 50 | < 50 | < 50 | < 50

Continued, in another order:

Row | Dmax at 1 µM (CK1α) [%] | Dmax at 1 µM (GSPT1) [%] | Dmax at 1 µM (IKAROS) [%] | SMILES | fold induction at 1 µM (IL-2) | inhibition at 1 µM (TNF-α) [%] | inhibition at 1 µM (IL-6) [%] | viability at 1 µM (MOLM-13 cells) [%] | inhibition at 1 µM (IL-1β) [%]
6 | 25 to 50 | – | – | CC(C)(C)c1cnc(CSc2cnc(NC(=O)C3CCN(CC(=O)NCCOCCNC(=O)NCc4cc5c(s4)C(=O)N(C4CCC(=O)NC4=O)C5)CC3)s2)o1 (stereo not drawn) [Compound 3, 3-{8-Oxo-3-[(3-{2-[2-(2-{4-[(5-{[5-(tert-butyl)-1,3-oxazol-2-yl]methylthio}-1,3-thiazol-2-ylamino)carbonyl]-1-piperidyl}acetylamino)ethoxy]ethyl}ureido)methyl]-2-thia-7-azabicyclo[3.3.0]octa-1(5),3-dien-7-yl}-2,6-piperidinedione] | 0.1 to 0.5 | 70 to 90 | > 90 | > 90 | > 90
7 | ≥ 75 | – | < 25 | CC(C)(C)c1cnc(CSc2cnc(NC(=O)C3CCN(CCOCCOCCOCCOCCNCC(=O)NCc4scc5c4CN(C4CCC(=O)NC4=O)C5=O)CC3)s2)o1 (stereo not drawn) [Compound 58, N-(5-(((5-(tert-butyl)oxazol-2-yl)methyl)thio)thiazol-2-yl)-1-(1-(5-(2,6-dioxopiperidin-3-yl)-4-oxo-5,6-dihydro-4H-thieno[3,4-c]pyrrol-1-yl)-3-oxo-8,11,14,17-tetraoxa-2,5-diazanonadecan-19-yl)piperidine-4-carboxamide] | 0.5 to 1 | < 50 | 70 to 90 | 50 to 70 | > 90
8 | 25 to 50 | – | 50 to 75 | Cn1ncc(-c2nc(N[C@H]3CC[C@H](NCC(=O)NCCOCCOCCOCCNc4cccc5c4CN(C4CCC(=O)NC4=O)C5=O)CC3)ncc2F)c1CC1CC1 (stereo partly drawn) [Compound 56, 2-(((1r,4r)-4-((4-(5-(cyclopropylmethyl)-1-methyl-1H-pyrazol-4-yl)-5-fluoropyrimidin-2-yl)amino)cyclohexyl)amino)-N-(2-(2-(2-(2-((2-(2,6-dioxopiperidin-3-yl)-1-oxoisoindolin-4-yl)amino)ethoxy)ethoxy)ethoxy)ethyl)acetamide] | ≤ 0.1 | > 90 | > 90 | > 90 | > 90
